Consider 17 compounds from US8735425B2, “Tetrahydroisoquinoline derivative” (Daiichi Sankyo Company, Limited, priority 2008, dated 2014).

Each structure is given as a SMILES string.

For experiment [1], the target named is T1, DGAT1 enzyme (Homo sapiens, UniProt O75907).
T1 construct: made in house
T1 sequence (O75907 1-488): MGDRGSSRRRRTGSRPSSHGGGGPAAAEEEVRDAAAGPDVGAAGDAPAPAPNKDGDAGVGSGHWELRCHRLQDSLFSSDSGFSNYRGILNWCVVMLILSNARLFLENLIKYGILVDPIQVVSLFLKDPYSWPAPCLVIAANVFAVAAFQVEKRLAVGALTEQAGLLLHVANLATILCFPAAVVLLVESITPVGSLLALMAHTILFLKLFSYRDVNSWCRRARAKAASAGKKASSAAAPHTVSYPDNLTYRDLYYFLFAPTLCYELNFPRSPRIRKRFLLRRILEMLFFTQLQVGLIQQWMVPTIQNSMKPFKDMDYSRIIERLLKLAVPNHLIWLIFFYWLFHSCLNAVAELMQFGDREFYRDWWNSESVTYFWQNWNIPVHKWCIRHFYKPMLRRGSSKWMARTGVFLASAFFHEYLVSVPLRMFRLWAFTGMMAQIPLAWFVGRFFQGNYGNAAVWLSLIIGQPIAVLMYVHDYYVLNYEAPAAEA
The experiment is described as follows: DGAT1 inhibitory activity test. The experiment is classed as biochemical. The note with it: test compound concentration of 0.05 μg/ml; read-out: Inhibitory Rate. As for the experimental part: DGAT1 enzyme was prepared and stored according to the method described in US2007/0249620.
(2) DGAT1 Inhibitory Activity Test
A reaction solution having the following composition was incubated at room temperature (23° C.) for 30 minutes: 175 mM Tris-HCl (pH 8.0), 8 mM MgCl2, 1 mg/ml BSA, 0.3 mM 1,2-dioleoyl-sn-glycerol (10-fold concentration of EtOH solution, 10% added), 10 μM [^14C]-oleoyl-CoA (approximately 50 mCi/mmol), 0.5% Triton X-100, the DGAT1 enzyme (10 μg) obtained in Test Example 1(1), and a test compound or vehicle (DMSO/MeOH, 7:3 solution, 5% added), […] in total. A reaction stop solution ([…] consisting of isopropanol/1-heptane/water (80:20:2, v/v/v) was added to the reaction solution and stirred. Subsequently, water (30 μl) and 1-heptane (100 μl) were added thereto and stirred. The 1-heptane layer (50 μl) was spotted onto a TLC plate and developed with a developing solvent consisting of 1-hexane/diethyl ether/acetic acid (85:15:1, v/v/v). The radioactivity of the triglyceride fraction was quantified using BAS2000 Bio Image Analyzer (FUJIFILM) and compared with the control. The inhibitory activity of the test compound was calculated according to the formula shown below. In this context, the radioactivity at no reaction (0 minute incubation) was used as background. Inhibitory Rate=100−[(Radioactivity of sample supplemented with test compound)−(Background)]/[(Radioactivity of control)−(Background)]×100

Experiment [2] has as its system Male C57BL/6N mice. As to the kind of experiment: Triglyceride absorption suppression after fat loading (in vivo DGAT1 inhibitory effect). Particulars: Mus musculus, po; dose of 10 mg/kg or lower, orally administered, mice fasted overnight, plasma triglyceride after fat loading; read-out: Triglyceride absorption suppressive activity. Here is the method:
The DGAT1 enzyme is important for the digestion and absorption of triglycerides, and the inhibition of DGAT1 in the small intestine suppresses the absorption of triglycerides. The in vivo activity of its DGAT1 inhibitory effect was evaluated with the suppressed absorption of triglycerides after fat loading as an index. Male C57BL/6N mice (7-12 weeks old, body weight: 17-25 g, Charles River Laboratories Japan Inc.) fasted overnight were assigned to Vehicle group 1, Vehicle group 2, and each test compound group, to which a vehicle (0.5% methylcellulose) or each test compound (1 to 10 mg/kg) suspended in vehicle was orally administered (5 mL/kg). After a given time, a lipoprotein lipase inhibitor (Pluronic-F127: Sigma-Aldrich Corp., 1 g/kg, 20% by weight dissolved in saline) was intraperitoneally administered (5 mL/kg) to each group. Immediately thereafter, distilled water for the Vehicle group 1 or a 20% fat-containing emulation (Intralipid 20%: TERUMO CORP., Japan) for the Vehicle group 2 and the compound groups were orally administered thereto (0.2 mL/mouse). After a given time of 1 to 4 hours after administration, blood was collected from the tail vein or the right ventricle, and plasma was immediately separated and collected. Then, the triglyceride concentration in plasma was measured using a commercially available kit (Triglyceride E-Test Wako: Wako Pure Chemical Industries, Ltd.). In this method, the administration of the lipoprotein lipase inhibitor suppresses the hydrolysis of triglycerides in the blood such that the triglycerides are accumulated in the blood. These triglycerides are derived from two origins: exogenous triglycerides absorbed in the gastrointestinal tract and endogenous triglycerides released from the liver. The triglyceride absorption suppressive activity of each test compound was calculated based on the equation shown below by removing the influence of the endogenous triglycerides. In this context, each test compound was separately confirmed to have no influence on the concentration of the endogenous triglycerides.
Triglyceride absorption suppressive activity (%)=100−[(Triglyceride concentration of each test compound group)−(Triglyceride concentration of Vehicle group 1)]/[(Triglyceride concentration of Vehicle group 2)−(Triglyceride concentration of Vehicle group 1)]×100

On to `COc1ccc(F)cc1NC(=O)Nc1ccc2c(c1)CCN(C(=O)O[C@H]1CC[C@H](CC(=O)O)CC1)C2` [Example 22, trans-6-[3-(5-fluoro-2-methoxy-phenyl)-ureido]-3,4-dihydro-1H-isoquinoline-2-carboxylic acid 4-carboxymethyl-cyclohexyl ester], for which, in experiment [1], the inhibition at 0.05 µg/mL was at least 50%. The inhibition in vivo at up to 10 mg/kg in experiment [2] is at least 60%.

As for `O=C(Nc1ccc2c(c1)CCN(C(=O)O[C@H]1CC[C@H](CC(=O)OC[C@@H](O)CO)CC1)C2)Nc1ccccc1F` [Example 45, trans-6-[3-(2-fluoro-phenyl)-ureido]-3,4-dihydro-1H-isoquinoline-2-carboxylic acid 4-((S)-2,3-dihydroxy-propoxycarbonylmethyl)-cyclohexyl ester], the inhibition at 0.05 µg/mL in experiment [1] was at least 50%. The inhibition in vivo at up to 10 mg/kg in experiment [2] is at least 60%.

Take `CC(C)Oc1cccc(NC(=O)Nc2ccc3c(c2)CCN(C(=O)O[C@H]2CC[C@H](CC(=O)O)CC2)C3)c1` [Example 30, trans-6-[3-(3-isopropoxy-phenyl)-ureido]-3,4-dihydro-1H-isoquinoline-2-carboxylic acid 4-carboxymethyl-cyclohexyl ester]: the inhibition at 0.05 µg/mL in experiment [1] was at least 50%. Also, the inhibition in vivo at up to 10 mg/kg in experiment [2] is at least 60%.

Take `CC(C(=O)O)[C@H]1CC[C@H](OC(=O)N2CCc3cc(NC(=O)Nc4ccccc4F)ccc3C2)CC1` (stereo partly drawn) [Example 103, trans-6-[3-(2-fluoro-phenyl)-ureido]-3,4-dihydro-1H-isoquinoline-2-carboxylic acid 4-(1-carboxy-ethyl)-cyclohexyl ester]: the inhibition at 0.05 µg/mL in experiment [1] is at least 50%. For the same compound, the inhibition in vivo at up to 10 mg/kg in experiment [2] is at least 60%.

Regarding `COc1ccc(F)c(NC(=O)Nc2ccc3c(c2)CCN(C(=O)O[C@H]2CC[C@H](CC(=O)O)CC2)C3)c1` [Example 60, trans-6-[3-(2-fluoro-5-methoxy-phenyl)-ureido]-3,4-dihydro-1H-isoquinoline-2-carboxylic acid 4-carboxymethyl-cyclohexyl ester], the inhibition at 0.05 µg/mL in experiment [1] was at least 50%. In experiment [2], the inhibition in vivo at up to 10 mg/kg is at least 60%.

As for `O=C(O)CC1=CCC(OC(=O)N2CCc3cc(NC(=O)Nc4ccccc4F)ccc3C2)CC1` (stereo not shown) [Example 12, 6-[3-(2-fluoro-phenyl)-ureido]-3,4-dihydro-1H-isoquinoline-2-carboxylic acid 4-carboxymethyl-cyclohex-3-enyl-ester], the inhibition at 0.05 µg/mL in experiment [1] was at least 50%. The inhibition in vivo at up to 10 mg/kg in experiment [2] was at least 60%.

Turning to `COc1cccc(NC(=O)Nc2ccc3c(c2)CCN(C(=O)O[C@@H]2CC[C@@H](CC(=O)O)C[C@H]2C)C3)c1` (relative stereo) [Example 101, 6-[3-(3-methoxy-phenyl)-ureido]-3,4-dihydro-1H-isoquinoline-2-carboxylic acid t-4-carboxymethyl-t-2-methyl-r-1-cyclohexyl ester], the inhibition at 0.05 µg/mL in experiment [1] was at least 50%. The inhibition in vivo at up to 10 mg/kg in experiment [2] is at least 60%.

In the case of `O=C(O)C[C@H]1CC[C@H](OC(=O)N2CCc3cc(NC(=O)NC4CCCC4)ccc3C2)CC1` [Example 83, trans-6-(3-cyclopentyl-ureido)-3,4-dihydro-1H-isoquinoline-2-carboxylic acid 4-carboxymethyl-cyclohexyl ester], in experiment [1], the inhibition at 0.05 µg/mL was at least 50%. Moreover, the inhibition in vivo at up to 10 mg/kg in experiment [2] was at least 60%.

Take `O=C(O)C[C@H]1CC[C@H](OC(=O)N2CCc3cc(NC(=O)Nc4cccc(OC(F)(F)F)c4)ccc3C2)CC1` [Example 52, trans-6-[3-(3-trifluoromethoxy-phenyl)-ureido]-3,4-dihydro-1H-isoquinoline-2-carboxylic acid 4-carboxymethyl-cyclohexyl ester]: in experiment [1], the inhibition at 0.05 µg/mL is at least 50%. Further, in experiment [2], the inhibition in vivo at up to 10 mg/kg is at least 60%.

With `O=C(O)C[C@H]1CC[C@H](OC(=O)N2CCc3cc(NC(=O)Nc4ccc(F)c(F)c4)ccc3C2)CC1` [Example 57, trans-6-[3-(3,4-difluoro-phenyl)-ureido]-3,4-dihydro-1H-isoquinoline-2-carboxylic acid 4-carboxymethyl-cyclohexyl ester], the inhibition at 0.05 µg/mL in experiment [1] was at least 50%. Also, in experiment [2], the inhibition in vivo at up to 10 mg/kg was at least 60%.

With `O=C(O)C[C@H]1CC[C@H](OC(=O)N2CCc3cc(NC(=O)Nc4ccc(C(F)(F)F)cc4)ccc3C2)CC1` [Example 69, trans-6-[3-(4-trifluoromethyl-phenyl)-ureido]-3,4-dihydro-1H-isoquinoline-2-carboxylic acid 4-carboxymethyl-cyclohexyl ester], the inhibition at 0.05 µg/mL in experiment [1] is at least 50%. Further, in experiment [2], the inhibition in vivo at up to 10 mg/kg is at least 60%.

`O=C(O)C[C@H]1CC[C@H](OC(=O)N2CCc3cc(NC(=O)Nc4cccc(F)c4)ccc3C2)CC1` [Example 67, trans-6-[3-(3-fluoro-phenyl)-ureido]-3,4-dihydro-1H-isoquinoline-2-carboxylic acid 4-carboxymethyl-cyclohexyl ester]: the inhibition at 0.05 µg/mL in experiment [1] was at least 50%. Further, the inhibition in vivo at up to 10 mg/kg in experiment [2] was at least 60%.

Regarding `CSc1ccc(NC(=O)Nc2ccc3c(c2)CCN(C(=O)O[C@H]2CC[C@H](CC(=O)O)CC2)C3)cc1` [Example 62, trans-6-[3-(4-methylsulfanyl-phenyl)-ureido]-3,4-dihydro-1H-isoquinoline-2-carboxylic acid 4-carboxymethyl-cyclohexyl ester], the inhibition at 0.05 µg/mL in experiment [1] is at least 50%. In experiment [2], the inhibition in vivo at up to 10 mg/kg was at least 60%.

With `O=C(Nc1ccc2c(c1)CCN(C(=O)O[C@H]1CC[C@H](C(=O)O)CC1)C2)Nc1ccccc1F` [Example 8, trans-6-[3-(2-fluoro-phenyl)-ureido]-3,4-dihydro-1H-isoquinoline-2-carboxylic acid 4-carboxy-cyclohexyl ester], the inhibition at 0.05 µg/mL in experiment [1] was at least 50%. Also, in experiment [2], the inhibition in vivo at up to 10 mg/kg is at least 60%.

`O=C(O)C=C1CCC(OC(=O)N2CCc3cc(NC(=O)Nc4ccccc4F)ccc3C2)CC1` (stereo not shown) [Example 11, 6-[3-(2-fluoro-phenyl)-ureido]-3,4-dihydro-1H-isoquinoline-2-carboxylic acid 4-carboxymethylene-cyclohexyl ester]: the inhibition at 0.05 µg/mL in experiment [1] was at least 50%. Moreover, the inhibition in vivo at up to 10 mg/kg in experiment [2] was at least 60%.

Regarding `C[C@H]1C[C@H](CC(=O)O)CC[C@H]1OC(=O)N1CCc2cc(NC(=O)Nc3ccccc3F)ccc2C1` (relative stereo) [Example 15, 6-[3-(2-fluoro-phenyl)-ureido]-3,4-dihydro-1H-isoquinoline-2-carboxylic acid t-4-carboxymethyl-c-2-methyl-r-1-cyclohexyl ester], the inhibition at 0.05 µg/mL in experiment [1] is at least 50%. Also, the inhibition in vivo at up to 10 mg/kg in experiment [2] was at least 60%.

As to `O=C(O)CCC1CCC(OC(=O)N2CCc3cc(NC(=O)Nc4ccccc4F)ccc3C2)CC1` (stereo not shown) [Example 10, 6-[3-(2-fluoro-phenyl)-ureido]-3,4-dihydro-1H-isoquinoline-2-carboxylic acid 4-(2-carboxy-ethyl)-cyclohexyl ester], the inhibition at 0.05 µg/mL in experiment [1] was at least 50%. The inhibition in vivo at up to 10 mg/kg in experiment [2] was at least 60%.
